Values joined by “and” are separate entries in the source; they are usually repeats but may differ in a detail not shown here. Equal values may be shown once. Read-outs that look alike come from different tables or passages of the source.
Assays:
[1] = tested on: HIV transcripts (TAR, LLTR, Pol, PolyA, TatRev); experiment: Latency reversal assay: cell-associated HIV transcripts (RT-ddPCR) 24 hours after anti-CD3/CD28 activation of PBMCs from ART-suppressed PWH; assay type: cell-based; design: Elongated (LLTR) HIV transcripts, median relative to activated DMSO, initial screening / Midtranscribed (Pol) HIV transcripts, median relative to activated DMSO, initial screening / Multiply spliced (TatRev) HIV transcripts, median relative to activated DMSO, initial screening: concentration or dose not given beside the values; settings: for Effect on HIV transcripts in the initial drug screen (in words) / Multiply spliced (TatRev) HIV transcripts, median relative to activated DMSO, initial screening / Completed (PolyA) HIV transcripts, median relative to activated DMSO, initial screening: initial screening, 2 participants; for Effect on HIV transcripts in the initial drug screen (in words): 24 hours after activation; for Multiply spliced HIV transcripts (TatRev) (Fig 1B) / Multiply spliced (TatRev) HIV transcripts, median relative to activated DMSO, initial screening / Completed (PolyA) HIV transcripts, median relative to activated DMSO, initial screening: 24 hours; for Multiply spliced (TatRev) HIV transcripts, median relative to activated DMSO, initial screening: Figure 1B; for Multiply spliced (TatRev) HIV transcripts, median relative to activated DMSO, initial screening / Completed (PolyA) HIV transcripts, median relative to activated DMSO, initial screening: Supplemental Figure 2; for mrna remaining at 0.1 µM: 100nM
Method: We selected 26 small molecules targeting pathways implicated in HIV transcription or the blocks to HIV transcription underlying latency (Supplemental Table 1). […] Initial screening of all drugs was performed in freshly isolated PBMCs from 2 ART-suppressed individuals (Figure 1 and Supplemental Figure 2). PBMCs were cultured in the presence of individual drugs in DMSO or DMSO alone as a control, subsequently activated (anti-CD3/CD28), and harvested after 24 hours. […] The progression through different blocks to HIV transcription was quantified by measuring the levels of initiated (TAR), 5′ elongated (LLTR), midtranscribed/unspliced (Pol), completed (PolyA), and multiply spliced (TatRev) HIV transcripts. The levels of those HIV transcripts were normalized to 1 μg of total cellular RNA (to normalize for the effect of the drug on global cellular transcription) and expressed as a percentage of the activated DMSO control.
(§1) Figure 1 Screening of candidate LPAs by measuring the change in multiply spliced HIV transcripts after activation. Each drug was tested in PBMCs from 2 ART-suppressed study participants (denoted in the legend by varying symbol shapes). PBMCs were aliquoted into wells at 6 × 10^6 cells/well. After activation, the cells were cultured with antiretrovirals in the presence of individual drugs in DMSO or DMSO alone as control. All conditions were tested in the presence of CD3/28 T cell–activating beads, except for the unactivated DMSO condition. (A) After 24 hours, the viability was measured by trypan blue staining and then normalized to the levels of the activated DMSO (% of activated DMSO). Bars indicate medians. (B) Total cellular RNA was extracted, and the levels of multiply spliced HIV transcripts (TatRev) were measured by RT-ddPCR, normalized to 1 μg of total cellular RNA, and expressed as a percentage of the activated DMSO control (% of activated DMSO). RT-dd, reverse transcription digital droplet; vRNA, viral RNA; HAT, histone acetyltransferase.
The ability of our candidate LPAs to inhibit HIV transcriptional progression after activation was examined in PBMCs from a minimum of 7 PWH per drug tested (Figure 3). PBMCs were cultured in the presence of individual drugs in DMSO or in DMSO alone as a control, subsequently activated (anti-CD3/CD28), and harvested after 24 hours.
Each drug was tested in PBMCs from 7 ART-suppressed study participants. The PBMCs were aliquoted into wells at 6 × 10^6 cells/well. After activation, the cells were cultured with antiretrovirals in the presence of individual drugs in DMSO or DMSO alone as control. All conditions were tested in the presence of CD3/28 T cell–activating beads, except for the unactivated DMSO condition. After 24 hours, total RNA was extracted, and the progression through different stages of HIV transcription was quantified by measuring the levels of initiated (TAR), 5′ elongated (LLTR), midtranscribed/unspliced (Pol), completed (PolyA), and multiply spliced (TatRev) HIV transcripts. (A) The levels of all HIV transcripts were normalized to 1 μg of total cellular RNA and expressed as a percentage of the activated DMSO control (% of activated DMSO). Medians are shown as well as the individual values per study participant in different colors. (B–D) The effect of each drug on HIV transcriptional progression after activation was analyzed by the ratio of one HIV transcript to another. Ratios are independent of HIV infection frequency or normalization to cell numbers. Shown are the proportion of (B) all HIV transcripts that were elongated (LLTR/TAR), (C) elongated HIV transcripts that were completed spliced (PolyA/LLTR), and (D) completed transcripts that were multiply spliced (TatRev/PolyA).

[2] = tested on: PBMCs; experiment: Cell viability by trypan blue staining after 24 hours; assay type: cell-based, human
Method: as §1
For quantification of cell-associated HIV transcripts, PBMCs were harvested either after 24 hours or after 6 days. The cell viabilities were measured by trypan blue staining; then the cells were pelleted by centrifuging at 300g for 6 minutes and stored at –80°C. For quantification of virion-associated HIV RNA, cell culture supernatant was collected from 6 × 10^6 PBMCs that were treated and activated for 6 days as described above. Residual cells and cellular debris were subsequently removed from the supernatant by differential centrifugation (300g for 6 minutes, then 20,000g for 10 minutes), and the supernatant was stored at –80°C.

[3] = 10μM, 24 h after αCD3/28 activation, each column one participant

SMILES	Effect on HIV transcripts in the initial drug screen (in words) [1]	Viability (Fig 1A) ([2]; study participant 150a)	Viability (Fig 1A) ([2]; study participant 152)	further results
CCCCCCCCCCCCCCC=C(C(=O)OCC)C(=O)OCC [SPV-106]	did not observe any reduction	103.1 % of activated DMSO	97.61 % of activated DMSO	LLTR HIV transcripts (DMSO+αCD3/28 = 100) [1, 3]: 123.81 and 93.28; Pol HIV transcripts (DMSO+αCD3/28 = 100) [1, 3]: 71.05 and 12.29; PolyA HIV transcripts (DMSO+αCD3/28 = 100) [1, 3]: 64.82 and 38.96; TatRev HIV transcripts (DMSO+αCD3/28 = 100) [1, 3]: 60.34 and 263.16; Multiply spliced HIV transcripts (TatRev) (Fig 1B) ([1]; study participant 150a): 60.34 % of activated DMSO; Multiply spliced HIV transcripts (TatRev) (Fig 1B) ([1]; study participant 152): 263.16 % of activated DMSO
Nc1nc2nn[nH]c2c(=O)[nH]1 [8-azaguanine]	did not observe decreases	106.88 % of activated DMSO	98.65 % of activated DMSO	Multiply spliced (TatRev) HIV transcripts, median relative to activated DMSO, initial screening [1]: increase in multiply spliced transcripts
Nc1ccc(O)c(C(=O)O)c1 [mesalamine]	did not observe any reduction	102.78 % of activated DMSO	98.77 % of activated DMSO	–
CN1CCN(c2nc(C3=C(c4c[nH]c5ccccc45)C(=O)NC3=O)c3ccccc3n2)CC1 [sotrastaurin]	–	103.88 % of activated DMSO	98.33 % of activated DMSO	mrna remaining at 0.1 µM ([1]; Human immunodeficiency virus 1, PBMC, 24 h, 24 h after αCD3/28 activation, each column one participant, read-out: LLTR HIV transcripts (DMSO+αCD3/28 = 100)): 99.4%; mrna remaining at 0.1 µM ([1]; Human immunodeficiency virus 1, PBMC, 24 h, 24 h after αCD3/28 activation, each column one participant, read-out: Pol HIV transcripts (DMSO+αCD3/28 = 100)): 51.5%; mrna remaining at 0.1 µM ([1]; Human immunodeficiency virus 1, PBMC, 24 h, 24 h after αCD3/28 activation, each column one participant, read-out: PolyA HIV transcripts (DMSO+αCD3/28 = 100)): 39.3%; Completed (PolyA) HIV transcripts, median relative to activated DMSO, initial screening [1]: 41%
CN[C@@H]1C[C@H]2O[C@@](C)([C@@H]1OC)n1c3ccccc3c3c4c(c5c6ccccc6n2c5c31)C(=O)NC4 [staurosporine]	–	109.29 % of activated DMSO	100.37 % of activated DMSO	Completed (PolyA) HIV transcripts, median relative to activated DMSO, initial screening [1]: 41%
C[C@H]1O[C@@H](O[C@H]2[C@@H](O)C[C@H](O[C@H]3[C@@H](O)C[C@H](O[C@H]4CC[C@@]5(C)[C@H](CC[C@@H]6[C@@H]5C[C@@H](O)[C@]5(C)[C@@H](C7=CC(=O)OC7)CC[C@]65O)C4)O[C@@H]3C)O[C@@H]2C)C[C@H](O)[C@@H]1O [digoxin]	did not observe decreases	98.44 % of activated DMSO	105.27 % of activated DMSO	mrna remaining at 0.0025 µM ([1]; Human immunodeficiency virus 1, PBMC, 24 h, 2.5nM, 24 h after αCD3/28 activation, each column one participant, read-out: PolyA HIV transcripts (DMSO+αCD3/28 = 100)): 87%
Nc1ncnc2c1ncn2[C@@H]1O[C@H](CO)C[C@H]1O [cordycepin]	did not observe any reduction	101.9 % of activated DMSO	92.02 % of activated DMSO	–
Oc1ccc(/C=C/c2cc(O)cc(O)c2)cc1 [resveratrol]	–	102.48 % of activated DMSO	91.76 % of activated DMSO	–
CC(=O)Oc1ccccc1C(=O)O [aspirin]	did not observe much reduction	99.56 % of activated DMSO	95.5 % of activated DMSO	–
COc1cc(F)ccc1-c1ncnc(Nc2cccc(C[S@](C)(=N)=O)c2)n1 [atuveciclib]	–	108.3 % of activated DMSO	95.7 % of activated DMSO	Multiply spliced (TatRev) HIV transcripts, median relative to activated DMSO, initial screening [1]: 46%
CC(=O)S[C@@H]1CC2=CC(=O)CC[C@]2(C)[C@H]2CC[C@@]3(C)[C@@H](CC[C@@]34CCC(=O)O4)[C@H]12 [spironolactone]	little reduction	102.53 % of activated DMSO	102.65 % of activated DMSO	–
Cn1cc(C2=C(c3cn(C4CCN(Cc5ccccn5)CC4)c4ccccc34)C(=O)NC2=O)c2ccccc21 [enzastaurin]	–	100.98 % of activated DMSO	98.98 % of activated DMSO	–

Reference: paper PMC11466185, “Mechanisms and efficacy of small molecule latency-promoting agents to inhibit HIV reactivation ex vivo” (JCI Insight, 2024)
